# According to ChEMBL document CHEMBL5108028 (Bioorg Med Chem, 2022):
# The source made the active and inactive calls. The rule behind the calls is not given here. Where a SMILES comes first, the peptide text is derived from it. [ ]: non-standard residue; d: D form. 2Thi = N[C@@H](Cc1cccs1)C(=O)O; hSer = N[C@@H](CCO)C(=O)O; Nle = CCCC[C@H](N)C(=O)O
# Tests used:
# MKN-7 = assay: Anticancer activity against human MKN-7 cells assessed as inhibition of cell growth incubated for 3 days by MTT assay; assay type: functional, cell-based; details: MKN-7, 72 h
# MKN-74 = assay: Anticancer activity against human MKN-74 cells assessed as inhibition of cell growth incubated for 3 days by MTT assay; assay type: functional, cell-based; details: MKN-74, 72 h
# [1] = target: T1, Cadherin-1 (Homo sapiens) (UniProt P12830); assay: Binding affinity to human E-cadherin in human MKN-7 cell membrane protein fraction measured after 2 hrs by Western blotting based pull-down assay; assay type: cell membranes
# T1 sequence (whole entry): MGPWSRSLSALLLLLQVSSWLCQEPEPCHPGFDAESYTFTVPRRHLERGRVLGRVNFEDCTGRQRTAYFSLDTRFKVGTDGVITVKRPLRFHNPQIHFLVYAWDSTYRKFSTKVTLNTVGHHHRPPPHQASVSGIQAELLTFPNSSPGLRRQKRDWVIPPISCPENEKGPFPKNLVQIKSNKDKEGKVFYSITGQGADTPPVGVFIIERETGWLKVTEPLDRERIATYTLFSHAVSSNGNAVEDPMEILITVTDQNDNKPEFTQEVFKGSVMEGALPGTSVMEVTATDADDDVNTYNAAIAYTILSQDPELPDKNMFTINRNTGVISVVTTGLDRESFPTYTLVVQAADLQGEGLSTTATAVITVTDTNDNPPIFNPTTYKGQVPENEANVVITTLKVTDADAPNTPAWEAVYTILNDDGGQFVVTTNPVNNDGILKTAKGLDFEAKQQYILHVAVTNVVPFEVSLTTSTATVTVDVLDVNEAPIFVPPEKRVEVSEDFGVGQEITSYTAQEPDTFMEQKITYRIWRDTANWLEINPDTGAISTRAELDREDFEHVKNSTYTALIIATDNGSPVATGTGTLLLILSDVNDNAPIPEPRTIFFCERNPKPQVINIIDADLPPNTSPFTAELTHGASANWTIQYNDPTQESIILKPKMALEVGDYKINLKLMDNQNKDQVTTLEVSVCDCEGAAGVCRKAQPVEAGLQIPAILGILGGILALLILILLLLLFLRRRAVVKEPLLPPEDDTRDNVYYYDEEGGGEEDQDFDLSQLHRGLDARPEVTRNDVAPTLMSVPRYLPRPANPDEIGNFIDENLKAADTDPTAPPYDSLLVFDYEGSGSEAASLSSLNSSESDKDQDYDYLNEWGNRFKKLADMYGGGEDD
IC50 (MKN-7),IC50 (MKN-74),Activity [1],Compound
79.1 µg/mL,–,–,H-YMVYMFQYDS-OH
0.61 µM,0.07 µM,–,CCCC[C@H](NC(=O)[C@H](Cc1ccc(O)cc1)NC(=O)[C@H](CC(N)=O)NC(=O)[C@H](CC(C)C)NC(=O)[C@H](CC(=O)O)NC(=O)[C@@H](NC(=O)[C@@H](N)Cc1ccccc1)[C@@H](C)CC)C(=O)N[C@H](C(=O)N[C@@H](Cc1ccc(O)cc1)C(=O)N[C@@H](CCOC)C(N)=O)C(C)C (H-FIDLNY[Nle]VY[hSer](Me)-NH2)
3.36 µM,0.16 µM,–,H-FIDLNYLVYM-NH2
6.35 µM,0.96 µM,–,CC[C@H](C)[C@H](NC(=O)[C@@H](N)Cc1ccccc1)C(=O)N[C@@H](CC(=O)O)C(=O)N[C@@H](CC(C)C)C(=O)N[C@@H](CC(N)=O)C(=O)N[C@@H](Cc1ccc(O)cc1)C(=O)N[C@@H](Cc1cccs1)C(=O)N[C@H](C(=O)N[C@@H](Cc1ccc(O)cc1)C(=O)N[C@@H](CCSC)C(N)=O)C(C)C (H-FIDLNY[2Thi]VYM-NH2)
97.3 µg/mL,–,–,H-KVDIVAINDP-OH
13.5 µM,20.7 µM,–,H-DLNYMVYM-NH2
6.87 µM,0.25 µM,–,H-FIDLNYMVYF-NH2
4.03 µM,9.29 µM,–,H-AIDLNYMVYM-OH
4.3 µM,17.9 µM,–,H-FIDLNYMVY-NH2
1.64 µM,0.2 µM,–,CCCC[C@H](NC(=O)[C@H](Cc1ccc(O)cc1)NC(=O)[C@H](CC(N)=O)NC(=O)[C@H](CC(C)C)NC(=O)[C@H](CC(=O)O)NC(=O)[C@@H](NC(=O)[C@@H](N)Cc1ccccc1)[C@@H](C)CC)C(=O)N[C@H](C(=O)N[C@@H](Cc1ccc(O)cc1)C(=O)N[C@@H](CCSC)C(N)=O)C(C)C (H-FIDLNY[Nle]VYM-NH2)
5.8 µM,8.84 µM,–,H-FIDLAYMVYM-OH
10.2 µM,0.35 µM,–,CCCC[C@H](NC(=O)[C@H](Cc1ccc(O)cc1)NC(=O)[C@@H](NC(=O)[C@H](CCSC)NC(=O)[C@H](Cc1ccc(O)cc1)NC(=O)[C@H](CC(N)=O)NC(=O)[C@H](CC(C)C)NC(=O)[C@H](CC(=O)O)NC(=O)[C@@H](NC(=O)[C@@H](N)Cc1ccccc1)[C@@H](C)CC)C(C)C)C(N)=O (H-FIDLNYMVY[Nle]-NH2)

# Further lines, the compound ahead of its results:
Compound,IC50 (MKN-7),IC50 (MKN-74),Activity [1]
H-FIDLNYMV-NH2,8.22 µM,21.6 µM,–
H-FIDLNYMVYM-OH,18.9 µg/mL,13.2 µg/mL,Active
CC[C@H](C)[C@H](NC(=O)[C@@H](N)Cc1ccccc1)C(=O)N[C@@H](CC(=O)O)C(=O)N[C@@H](CC(C)C)C(=O)N[C@@H](CC(N)=O)C(=O)N[C@@H](Cc1ccc(O)cc1)C(=O)N[C@@H](CCSC)C(=O)N[C@H](C(=O)N[C@@H](Cc1ccc(O)cc1)C(=O)N[C@@H](CCOC)C(N)=O)C(C)C (H-FIDLNYMVY[hSer](Me)-NH2),4.43 µM,0.19 µM,–
H-FIDLNYMVYM-NH2,1.13 µM,0.37 µM,–
H-FADLNYMVYM-OH,4.38 µM,3.91 µM,–
H-FIDLNYMVYL-NH2,9.81 µM,1.09 µM,–
H-FIDLNAMVYM-OH,2.62 µM,1.14 µM,–
H-FIALNYMVYM-OH,0.98 µM,1.14 µM,–
CC[C@H](C)[C@H](NC(=O)[C@@H](N)Cc1ccccc1)C(=O)N[C@@H](CC(=O)O)C(=O)N[C@@H](CC(C)C)C(=O)N[C@@H](CC(N)=O)C(=O)N[C@@H](Cc1ccc(O)cc1)C(=O)N[C@@H](CCOC)C(=O)N[C@H](C(=O)N[C@@H](Cc1ccc(O)cc1)C(=O)N[C@@H](CCSC)C(N)=O)C(C)C (H-FIDLNY[hSer](Me)VYM-NH2),3.51 µM,0.2 µM,–
H-FIDLNYMVAM-OH,4.24 µM,1.11 µM,–
H-IDLNYMVYM-NH2,11.4 µM,25.7 µM,–
H-FIDANYMVYM-OH,9.56 µM,5.47 µM,–
H-FIDLNYAVYM-OH,3.01 µM,9.05 µM,–
CC[C@H](C)[C@H](NC(=O)[C@@H](N)Cc1ccccc1)C(=O)N[C@@H](CC(=O)O)C(=O)N[C@@H](CC(C)C)C(=O)N[C@@H](CC(N)=O)C(=O)N[C@@H](Cc1ccc(O)cc1)C(=O)N[C@@H](CCSC)C(=O)N[C@H](C(=O)N[C@@H](Cc1ccc(O)cc1)C(=O)N[C@@H](Cc1cccs1)C(N)=O)C(C)C (H-FIDLNYMVY[2Thi]-NH2),8.62 µM,0.98 µM,–
H-FIDLNYMAYM-OH,14.8 µM,16.3 µM,–
H-FIDLNYMVYA-OH,8.78 µM,4.5 µM,–
H-FIDLNYFVYM-NH2,8.23 µM,1.59 µM,–
